In patent publication US20040116527A1, “Agents against stress-induced diseases” (AJINOMOTO CO., INC., priority 2001, published 2004):

What was measured:
[1] = test system: mojyako (young yellow tail); test: Feeding test under stress from feeding at high density in a water tank (Example 7); assay type: in vivo; settings: for Total feed intake: 24 feeding days; for Daily feeding ratio (%) / Daily increment (%) / Feed efficiency (%) / Survival rate (%): 28 day test; for Survival rate (%): 40 fish per 800-L tank; for feed intake compared with the remaining experimental lots (involving higher body weight increment): over the 3 week to 4 week
Protocol: Test feeds were prepared by adding lysine hydrochloride salt at the ratio shown in Table 3 below to a commercially available mashed feed for mojyako. The lysine content in the dry feed is thereby at 4.8%, which is far above the dietetic requirement (1.78%). For comparison, further, a feed was prepared by adding arginine hydrochloride salt at the same level instead of lysine hydrochloride salt, for use at the test.
As test fish, each group of 40 mojyako fishes of mean fish body weight of about 35 g were placed in one 800-L water tank, to which the feeds were fed two times daily at 8:00 in the morning and 16:00 in the afternoon to satiation, for a total of 4 weeks. During the term, their body weights were measured weekly. Herein, feeding was not done at 16:00 in the afternoon on the day before the day for body weight measurement.

Wistar rats [2] = test: Stress-induced gastric ulcer experiment, oral aqueous solutions (Example 5); assay type: in vivo, rat; settings: 5 mL orally once daily for 3 days, water immersion 5 hours on day 4; compared with control group fed pure water
Protocol: To assess the effects of lysine administration on stress-induced gastric ulcers, 7-week Wistar rats (male; Nippon Charles-River) were used. For 7 days, normal diet (CRF-1; Oriental Yeast) was fed ad libitum to the rats, for preliminary feeding. For the stress experiment, rats were divided into the following three groups for feeding for another 3 days under starvation conditions: I) a control group (N=8) fed with pure water; 2) a group (N=8) given with an aqueous lysine solution (40 mg/mL); and 3) a group (N=4) given with an aqueous mixture solution of lysine glutamate salt (40 mg/mL) and arginine (40 mg/mL). The aqueous solutions were given to the individual groups in such a manner that dosing of 5 mL of each solution was enforced with an oral probe, once daily at 9:00 in the morning.
During the term, water was fed ad libitum. On day 4, the rats were placed in a stress gage (Natsume Seisakusho; KN-468) as in Example 3, to immerse the rats in water (temperature of 22 to 25° C.) so as to soak their breast for 5 hours to induce stress-induced gastric ulcer.

Wistar rats [3] = test: Elevated T-maze test after water-immersion stress, oral aqueous solutions (Example 6); assay type: in vivo, rat
Protocol: Seven-week Wistar rats (male, Nippon Charles-River) were used. For 7 days, the normal diet (CRF-1; Oriental Yeast) was fed ad libitum to the rats, for preliminary feeding. For the stress experiment, the rats were divided into the following three groups for feeding for another 3 days under starvation conditions: 1) a group (N=14) fed with an aqueous glutamine solution (120 mg/mL); 2) a group (N=14) given with an aqueous lysine solution (120 mg/mL); and 3) a group (N=14) given with an aqueous mixture solution of lysine glutamate salt (120 mg/mL) and arginine (120 mg/mL). The aqueous solutions were given to the individual groups in such a manner that dosing of 5 mL of each solution was enforced with an oral probe, once daily at 9:00 in the morning. During the term, water was fed ad libitum. On day 4, the rats were placed in a stress gage (Natsume Seisakusho; KN-468) to immerse the rats in water (temperature of 22 to 25° C.) so as to soak their breast for 4 hours for stress loading. Thereafter, elevated T-maze (see Example 1) test was done, for counting the time duration for searching action.

Wistar rats [4] = test: Model with stress-induced appetite loss, foot shock stress (Example 4); assay type: in vivo, rat; settings: lysine-added diet (27 g/kg) vs control diet (13.4 g/kg), fed from 4 days before foot shock stress
Protocol: Wistar rats (male; age 13 weeks; about 400 g or so; N=16) were used at this experiment. Four days before the start of the experiment and throughout the stress experiment, the rats were fed with normal diet (control diet; lysine at 13.4 g/kg) and the lysine-added diet (27 g/kg). Under conditions of water ad libitum, feeding was done from 9:00 to 11:00. The rats were subjected to foot shock stress (1 mA/3 minutes; once per one hour at 19:00 to 7:00 on the next day) on day 4 of feeding; foot shock stress (1 mA/3 minutes, once per 2 hours at 19:00 to 7:00 on the next day) on day 5; and foot shock stress (1 mA/3 minutes, once at 7:00) on day 6. The changes in the total feed intake each day and the change of body weight over days were measured.

[5] = test system: Broiler (species: Arbor Acres); test: Broiler feeding at normal and high density under very hot conditions (Example 8); assay type: in vivo; settings: loading of lysine alone, ratio of arginine/lysine in the feed lowered
From the text: Broiler (species: Arbor Acres) was fed under very hot conditions.
The feeding density was 8 chickens/1 m^2 (normal density) and 12 chickens/1 m^2 (high density) in two lots; the feeds were the following three groups: Feed 1=normal feed; Feed 2=normal feed+lysine (the lysine content 2-fold that in Feed 1); or Feed 3=normal feed+lysine+arginine (the lysine content and the arginine content were individually 2-fold those in Feed 1). A total of 6 experimental examples were set as combinations of the feeding densities and the feeds. The test was started on age 21 days (the mean body weight then was 722 g). The feeding results (body weight increment, feed requirement) on age 48 days were compared thereto. On the age 48 days, the chickens were sacrificed to death, for the evaluation of their meat quality (fat ratio in abdominal cavity). The feed requirement was expressed by the feed amount required for the increment of 1 g/body weight, as calculated by dividing the total feed intake by the body weight increment.

rats = test: Water-immersion restraint model of stress-induced gastric ulcer, diets (Example 3); assay type: in vivo, rat; settings: 3-week feeding, 18 h starvation, water immersion 6 hours at 22 to 25 C
Protocol: Rats were fed with the low lysine diet and the lysine-added diet supplemented for lysine deficiency (see Table 1) for 3 weeks. After starvation for 18 hours, the rats were placed in a stress gage (Natsume Seisakusho; KN-468) to immerse the rats in water (temperature of 22 to 25° C.) so as to soak their breast for 6 hours. Thereafter, a stomach was resected, to calculate the area with gastric bleeding, to examine the degree of gastric bleeding with the NHI image software. […] A correlation between gastric bleeding and the incidence of gastric ulcer is observed in this model. Therefore, it can be concluded that adding lysine to diet can prevent stress-induced gastric ulcer occurring on the low lysine diet.

Row | SMILES | Total feed intake [1] [g] | Daily feeding ratio (%) [1] [%] | Daily increment (%) [1] [%] | Feed efficiency (%) [1] [%] | Survival rate (%) [1] [%] | Mean body weight at start [1] | Weekly feed intake (g) for 0-1 week [1] [g] | Weekly feed intake (g) for 1-2 week [1] [g] | Weekly feed intake (g) for 2-3 week [1] [g] | Weekly feed intake (g) for 3-4 week [1] [g] | Mean body weight on 1 week [1] | Mean body weight on 2 week [1] | Mean body weight on 3 week [1] | Mean body weight on 4 week (final) [1] | feed intake compared with the remaining experimental lots (involving higher body weight increment) [1] | further results
1 | N=C(N)NCCC[C@H](N)C(=O)O [Arginine, L-Arginine, reference compound] | 3072 | 4.09 | 3.36 | 82.0 | 100 | 35.5 | 18.7 | 36.7 | 54.5 | 76.8 | 45.7 | 61.5 | 77.6 | 98.5 | could not be obtained | –
2 | NCCCC[C@H](N)C(=O)O [Lysine, L-Lysine] | 3452 | 4.29 | 3.68 | 85.8 | 100 | 34.8 | 18.4 | 38.3 | 59.9 | 86.3 | 46.4 | 63.7 | 84.2 | 108.9 | larger | body weight increment compared with the control ([1]; at the termination of the test): 17%; areas of gastric bleeding (Wistar rats [2]): significant reduction; time duration for searching action (Wistar rats [3]; 5 mL orally once daily for 3 days, water immersion 4 hours on day 4, compared with the glutamine group): significantly prolonged; effect on total feed intake and body weight change under stress (Wistar rats [4]): preventive effect; growth inhibition [5]: no growth inhibition is observed; degree in areas of gastric bleeding (ratio of the area of gastric bleeding to the total gastric area) (rats): can prevent
3 | NC(=O)CC[C@H](N)C(=O)O [glutamine, L-Glutamine, reference compound] | – | – | – | – | – | – | – | – | – | – | – | – | – | – | – | time duration for searching action, glutamine group vs physiological saline group (Wistar rats [3]; evaluation of the effect of glutamine): No significant difference
